Several values for one entry are separate records, joined by “and”; a condition that tells them apart may be missing. Equal entries are not always repeated. Entries after “also recorded” stand apart in the source; their conditions may differ.
Experiments:
[1] = system: 60 nucleotide single-stranded DNA fragments containing the complementation site; experiment: Electrophoretic mobility shift assay (EMSA); format: binding; conditions: PNA 1 μM, DNA fragments 500 nM; complementary vs nonsense DNA
Description: FIG. 5. PNA binding to off-target start codons. (A) The set of potential PNA candidates identified from the Keio collection were screened against the entire E. coli MG1655 genome to identify the distribution of off-target alignments when allowing for zero base mismatches in the alignment (left) and one base mismatch (right). In the 0-basepair mismatch analysis, all chosen PNAs that were tested had no other start codon alignments within the genome, whereas in the one base mismatch alignment, the number of start codon alignments distribute across zero to five alignments. (B) Electrophoretic mobility shift assay (EMSA) depicting 60 nucleotide single-stranded DNA fragments containing the complementation site for their corresponding PNA. Nonsense DNA was a random 60 nucleotide single-stranded DNA sequence that contained no complementation sites for PNA binding. […] Bands corresponding to PNA+complementary DNA are shifted above the unbound DNA (red triangles). Corresponding PNA+nonsense DNA bands are seen in lanes 3 and 5, with lane 3 having slight cross-over bands coming from lane 2. All lanes are from the same gel.
Gel Shift Mobility Assay: Synthetic DNA oligonucleotides that are 57-60 nucleotides in length were incubated with their respective PNA binding site at 37° C. overnight. The concentration of the DNA fragments was held at 500 nM, while the PNA was always in excess at 1 μM. […]

[2] = system: ESBL KPN; experiment: PNA growth assay (optical density) on clinical isolate; format: cell-based, Klebsiella pneumoniae
Description: (§1) Bacterial Cell culture: The clinical isolates were obtained from the lab of Nancy Madinger at the University of Colorado Anschutz campus. Clinical isolates were grown in Cation Adjusted Mueller Hinton broth (CAMHB) (Becton, Dickinson and Company 212322) at 37° C. with 225 rpm shaking or on solid CAMHB with 1.5% agar at 37° C. Clinical isolates were maintained as freezer stocks in 90% CAMHB, 10% glycerol at −80° C. Freezer stocks were streaked out onto solid CAMHB and incubated for 16 h to produce single colonies prior to experiments. For each biological replicate, a single colony was picked from solid media and grown for 16 h in liquid CAMHB prior to experiments. Non-clinical isolates, such as E. coli MG1655 (ATCC700926) and Salmonella entorica serovar typhimurium SL1344, were cultured in liquid 2% lysogeny broth (LB) or on 2% LB with 1.5% agar for solid plates. S. typhimurium cultures were supplemented with 30 μg/mL streptomycin and SL1344 strains containing plasmids pFPV (SL1344-mCherry) or pRG1 modified with a lacIq promoter (SL1344-Holin) were supplemented with 100 μg/mL ampicillin. Freezer stocks were stored in 60% LB broth, 40% glycerol at −80° C. Freezer stocks were streaked out onto solid LB and incubated for 16 h to produce single colonies before experiments. For biological replicates, single colonies were started in liquid LB and grown for 16 hours prior to experiments. E. coli MG1655 PNA growth experiments were carried out in M9 media (1×M9 minimal media salts solution (MP Biomedicals), 2.0 mM MgSO4, and 0.1 mM CaCl2 in sterile water) with 0.4% glucose.
(§2) PNA growth assay: Biological replicates were diluted 1:10,000 into treatment condition in 384-well plates and measured for 24 h in a Tecan GENios at 562 nm with a bandwidth of 35 nm. Media absorbance blanks were subtracted from data prior to analysis. Normalized optical density (OD) data is shown normalized to the time point where the “no treatment” growth curves reached saturation phase which varied across biological replicates.

[3] = system: MDR STm; experiment: as above; format: cell-based, Salmonella enterica serovar typhimurium; conditions: for growth inhibition: MDR STm, 10 μM PNA, optical density vs no treatment at 16 hours; for monotherapy effect (in words): clinical isolate of Salmonella
Description: as §1, §2

| Substance | binding specificity by EMSA (in words) [1] | monotherapy effect (in words) ([2]; 10 μM) | growth inhibition [3] | monotherapy effect (in words) [3] | growth inhibition ([2]; 10 μM PNA, optical density vs no treatment at 16 hours) |
| --- | --- | --- | --- | --- | --- |
| α-lexA: 12-mer antisense PNA cGGAATGAAAGC (SEQ ID NO. 17) targeting lexA, conjugated to (KFF)3K cell penetrating peptide via AEEA-linker (antisense CGGAATGAAAGC; all peptide nucleic acid (PNA); (KFF)3K cell-penetrating peptide attached via AEEA linker) | showed specificity to their targets; also recorded: show binding specificity to their target | no or minimal growth inhibition | 62±5.4% | effective against the clinical isolate of Salmonella |  |
| α-rpsD: 12-mer antisense PNA AGAAAATGGCAA (SEQ ID NO. 19) targeting rpsD, conjugated to (KFF)3K cell penetrating peptide via AEEA-linker (all peptide nucleic acid (PNA); (KFF)3K cell-penetrating peptide attached via AEEA linker) | showed specificity to their targets; also recorded: show binding specificity to their target |  | 99±0.1% and 99% | effective against the clinical isolate of Salmonella | 82%±8.8 |

From US20210087565A1, “ANTISENSE ANTIBIOTICS AND BACTERIAL SECRETION BASED DELIVERY SYSTEM TO ELIMINATE DRUG-RESISTANT BACTERIA” (priority 2018, published 2021)
